From the NIST ThermoML archive (doi:10.1016/j.jct.2014.02.012)
Numbers after ± are expanded uncertainties.

Columns and labels:
[1] = 298.15 K; for surface tension liquid-gas: Wilhelmy plate method; for viscosity / mass density: 101.33 kPa, Liquid; for viscosity: Capillary tube (Ostwald / Ubbelohde) method; for mass density: Vibrating tube method
[2] = 100 kPa, Liquid mixture 1, Wilhelmy plate method

Row | surface tension liquid-gas [1] | viscosity [1] | Structure (SMILES) | mass density [1] | interfacial tension ([2]; 298.15 K) | interfacial tension ([2]; 348.15 K)
1 |  |  | CCCCCCCCCCCCCC[P+](CCCCCC)(CCCCCC)CCCCCC.O=S(=O)([N-]S(=O)(=O)C(F)(F)F)C(F)(F)F + CCCCCCCCCCCC |  | 0.9 ± 0.2 mN/m | 0.6 ± 0.2 mN/m
2 |  |  | CCCCCCCCCCCCCC[P+](CCCCCC)(CCCCCC)CCCCCC.O=S(=O)([N-]S(=O)(=O)C(F)(F)F)C(F)(F)F + O |  | 27.1 ± 0.2 mN/m | 25.6 ± 0.2 mN/m
3 | 24.9 ± 0.2 mN/m | 1.356 ± 0.029 mPa·s | CCCCCCCCCCCC [dodecane] | 745.27 ± 0.24 kg/m3 |  | 
4 |  |  | CCCCCCCCCCCC [dodecane] + O |  | 52.2 ± 0.3 mN/m | 49.6 ± 0.3 mN/m
5 | 72 ± 0.2 mN/m | 0.904 ± 0.019 mPa·s | O [water] |  |  | 

Row | Structure (SMILES) | surface tension liquid-gas [1] | viscosity [1] | mass density [1] | interfacial tension ([2]; 298.15 K) | interfacial tension ([2]; 348.15 K)
6 | CCCCCCCCCCCCCC[P+](CCCCCC)(CCCCCC)CCCCCC.O=S(=O)([N-]S(=O)(=O)C(F)(F)F)C(F)(F)F | 30.9 ± 0.3 mN/m | 311.4 ± 11 mPa·s | 1065.5 ± 0.28 kg/m3 |  | 
